Measured values taken from ChEMBL document CHEMBL5370554, “Discovery of a first-in-class Aurora A covalent inhibitor for the treatment of triple negative breast cancer” (Eur J Med Chem, 2023).
Calls of active or inactive are those of the source. No cut-off for these calls is given here.

Tests used:
[1] = tested on: MDA-MB-231; experiment: Induction of apoptosis in human MDA-MB-231 cells assessed as live cells at 2.5 uM incubated for 24 hrs by Annexin V-FITC staining based flow cytometry (Rvb= 88.1%); type: functional
[2] = biological target: T1, Aurora kinase A (Homo sapiens, UniProt O14965); experiment: Inhibition of recombinant human Aurora A (1 to 403 residues) expressed in Escherichia coli using STK-substrate 2-biotin as substrate incubated for 60 mins in presence of 24 uM ATP by HTRF assay
T1 sequence (O14965 whole entry): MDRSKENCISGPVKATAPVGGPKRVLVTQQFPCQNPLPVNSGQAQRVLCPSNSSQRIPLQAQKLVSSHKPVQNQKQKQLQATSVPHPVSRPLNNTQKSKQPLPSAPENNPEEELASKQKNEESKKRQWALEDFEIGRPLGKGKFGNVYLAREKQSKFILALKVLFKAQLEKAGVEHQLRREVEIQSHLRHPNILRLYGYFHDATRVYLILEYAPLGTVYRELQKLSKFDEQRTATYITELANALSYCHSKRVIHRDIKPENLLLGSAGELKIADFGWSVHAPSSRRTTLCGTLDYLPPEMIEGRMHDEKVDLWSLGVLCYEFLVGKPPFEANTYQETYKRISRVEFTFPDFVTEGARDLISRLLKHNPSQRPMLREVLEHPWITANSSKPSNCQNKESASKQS

[3] = Metabolic stability in Sprague-Dawley rat liver microsomes assessed as half life at 1.75 uM incubated upto 60 mins in presence of NADPH by LC-MS analysis; type: ADME, Microsome
[4] = biological target: T1, Aurora kinase A; experiment: Inhibition of recombinant human Aurora A (1 to 403 residues) expressed in Escherichia coli using STK-substrate 2-biotin as substrate incubated for 15 mins in presence of 24 uM ATP by HTRF assay
[5] = tested on: MDA-MB-231; experiment: Induction of apoptosis in human MDA-MB-231 cells assessed as early apoptotic cells at 1.25 uM incubated for 24 hrs by Annexin V-FITC staining based flow cytometry (Rvb= 3.3%); type: functional
[6] = tested on: MDA-MB-231; experiment: Induction of apoptosis in human MDA-MB-231 cells assessed as necrotic cells at 5 uM incubated for 24 hrs by Annexin V-FITC staining based flow cytometry (Rvb= 1.67%); type: functional
[7] = tested on: MDA-MB-231; experiment: Induction of apoptosis in human MDA-MB-231 cells assessed as live cells at 5 uM incubated for 24 hrs by Annexin V-FITC staining based flow cytometry (Rvb= 88.1%); type: functional
[8] = Toxicity in BALB/c nude mouse xenografted with human MDA-MB-231 cells assessed as parenchymal injury in kidney at 15 mg/kg,ip every 2days for 20 days by Hematoxylin and Eosin staining based microscopy; type: organism-based; conditions: in vivo, 480 h, time 20 day
[9] = Toxicity in BALB/c nude mouse xenografted with human MDA-MB-231 cells assessed as parenchymal injury in lung at 15 mg/kg,ip every 2days for 20 days by Hematoxylin and Eosin staining based microscopy; type: organism-based; conditions: in vivo, 480 h, time 20 day
[10] = Toxicity in BALB/c nude mouse xenografted with human MDA-MB-231 cells assessed as inflammatory cell infiltration in kidney at 15 mg/kg,ip every 2days for 20 days by Hematoxylin and Eosin staining based microscopy; type: organism-based; conditions: in vivo, 480 h, time 20 day
[11] = tested on: MDA-MB-231; experiment: Inhibition of […] in human MDA-MB-231 cells at 1 uM incubated for 14 days by crystal violet staining based colony formation assay (Rvb= 115+/-4%); type: functional; conditions: MDA-MB-231, 336 h, time 14 day
[12] = Toxicity in BALB/c nude mouse xenografted with human MDA-MB-231 cells assessed as inflammatory cell infiltration in lung at 15 mg/kg,ip every 2days for 20 days by Hematoxylin and Eosin staining based microscopy; type: organism-based; conditions: in vivo, 480 h, time 20 day
[13] = Toxicity in BALB/c nude mouse xenografted with human MDA-MB-231 cells assessed as inflammatory cell infiltration in spleen at 15 mg/kg,ip every 2days for 20 days by Hematoxylin and Eosin staining based microscopy; type: organism-based; conditions: in vivo, 480 h, time 20 day
[14] = tested on: MDA-MB-231; experiment: Induction of apoptosis in human MDA-MB-231 cells assessed as necrotic cells at 2.5 uM incubated for 24 hrs by Annexin V-FITC staining based flow cytometry (Rvb= 1.67%); type: functional
[15] = biological target: T1, Aurora kinase A; experiment: Inhibition of recombinant human Aurora A (1 to 403 residues) expressed in Escherichia coli using STK-substrate 2-biotin as substrate incubated for 60 mins in presence of 7.2uM ATP by HTRF assay
[16] = tested on: MDA-MB-231; experiment: Antitumor activity against human MDA-MB-231 cells xenografted in BALB/c nude mouse assessed as tumor growth inhibition at 15 mg/kg,ip every 2days for 20 days; type: functional; conditions: MDA-MB-231, 480 h, time 20 day, read-out: TGI
[17] = tested on: Mus musculus; experiment: In vivo inhibition of Aurora signalling pathway in human MDA-MB-231 cells xenografted in BALB/c nude mouse assessed as decrease in Aurora A phosphorylation at Thr288 residue in tumor at 15 mg/kg,ip every 2days for 20 days by Western blot analysis; type: functional, organism-based; conditions: time 20.0 day
[18] = tested on: MDA-MB-231; experiment: Induction of apoptosis in human MDA-MB-231 cells assessed as late apoptotic cells at 5 uM incubated for 24 hrs by Annexin V-FITC staining based flow cytometry (Rvb= 6.90%); type: functional
[19] = biological target: Aurora kinase B (Homo sapiens) (UniProt Q96GD4); experiment: Binding affinity to Aurora B in human MDA-MB-231 cells assessed as thermal stability at 46 to 62 degreeC at 1 uM incubated for 1 hrs by […] analysis; type: cell-based
[20] = biological target: T2, Aurora kinase A (Homo sapiens) (UniProt O14965); experiment: Covalent irreversible inhibition of recombinant human Aurora A (1 to 403 residues) expressed in Escherichia coli using STK-substrate 2-biotin as substrate at 0.625 to 40 uM incubated upto 120 mins in presence of ATP by HTRF assay; conditions: dose 0.625-40 µM, TDE = time-dependent effect
T2 sequence (whole entry): T1 sequence (O14965 whole entry)

[21] = biological target: T1, Aurora kinase A; experiment: Inhibition of recombinant human Aurora A (1 to 403 residues) expressed in Escherichia coli using STK-substrate 2-biotin as substrate incubated for 15 mins in presence of 7.2uM ATP by HTRF assay
[22] = biological target: T1, Aurora kinase A; experiment: Inhibition of recombinant human Aurora A (1 to 403 residues) expressed in Escherichia coli using STK-substrate 2-biotin as substrate incubated for 40 mins in presence of 2.4uM ATP by HTRF assay
[23] = Toxicity in BALB/c nude mouse xenografted with human MDA-MB-231 cells assessed as parenchymal injury in spleen at 15 mg/kg,ip every 2days for 20 days by Hematoxylin and Eosin staining based microscopy; type: organism-based; conditions: in vivo, 480 h, time 20 day
[24] = biological target: T1, Aurora kinase A; experiment: Inhibition of recombinant human Aurora A (1 to 403 residues) expressed in Escherichia coli using STK-substrate 2-biotin as substrate incubated for 40 mins in presence of 0.48 uM ATP by HTRF assay
[25] = Toxicity in BALB/c nude mouse xenografted with human MDA-MB-231 cells assessed as inflammatory cell infiltration in liver at 15 mg/kg,ip every 2days for 20 days by Hematoxylin and Eosin staining based microscopy; type: organism-based; conditions: in vivo, 480 h, time 20 day
[26] = Cytotoxicity against human L02 cells assessed as inhibition of cell proliferation incubated for 48 hrs by CCK-8 assay; type: toxicity, cell-based

Chain of Aurora kinase B (Homo sapiens) (Q96GD4 whole entry, the tested form may be a part): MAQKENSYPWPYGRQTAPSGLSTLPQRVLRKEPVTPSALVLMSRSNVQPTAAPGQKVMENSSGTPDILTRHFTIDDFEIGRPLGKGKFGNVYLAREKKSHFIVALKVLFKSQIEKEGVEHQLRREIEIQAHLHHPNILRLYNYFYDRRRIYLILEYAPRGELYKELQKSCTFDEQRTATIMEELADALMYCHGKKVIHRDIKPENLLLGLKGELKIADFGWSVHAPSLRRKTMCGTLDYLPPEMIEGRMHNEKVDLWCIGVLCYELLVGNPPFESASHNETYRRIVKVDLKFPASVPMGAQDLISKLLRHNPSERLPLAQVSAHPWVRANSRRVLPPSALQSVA

IC50 [2]: 23.3 nM | half-life at 1.75 µM [3]: 24.3 min | IC50 [4]: 5.24 nM | IC50 [15]: 8.13 nM | Activity [19]: inactive | inhibition [20]: Tde | IC50 [21]: 4.36 nM | IC50 [22]: 2.77 nM | IC50 [24]: 1.55 nM
SMILES: C=CC(=O)Nc1ccc(-c2nc(Nc3cc(C)[nH]n3)c3ccc(N4CCN(C)CC4)cc3n2)cc1
Activity [1]: 60.1% | Activity [5]: 10.5% | Activity [6]: 0.27% | Activity [7]: 8.59% | Activity [8]: Non-Toxic | Activity [9]: Non-Toxic | Activity [10]: Non-Toxic | inhibition at 1 µM [11]: 13% | Activity [12]: Non-Toxic | Activity [13]: Non-Toxic | Activity [14]: 1.14% | inhibition in vivo at 15 mg/kg [16]: 32.3% | inhibition [17]: Active | Activity [18]: 62.6% | Activity [23]: Non-Toxic | Activity [25]: Non-Toxic | IC50 at 48 h [26]: 23400 nM
